{"source": "ChEMBL document CHEMBL4311992", "about": "“Discovery of 3-(((9H-purin-6-yl)amino)methyl)-4,6-dimethylpyridin-2(1H)-one derivatives as novel tubulin polymerization inhibitors for treatment of cancer” (Eur J Med Chem, 2019)", "key": {"HT-29": {"system": "HT-29", "assay": "Antiproliferative activity against human HT-29 cells assessed as reduction in cell viability after 72 hrs by MTT assay", "format": "functional, cell-based", "settings": "HT-29, 72 h"}, "[1]": {"target": "Ribosomal protein S6 kinase alpha-3 (Homo sapiens) (UniProt P51812)", "sequence (P51812 whole entry)": "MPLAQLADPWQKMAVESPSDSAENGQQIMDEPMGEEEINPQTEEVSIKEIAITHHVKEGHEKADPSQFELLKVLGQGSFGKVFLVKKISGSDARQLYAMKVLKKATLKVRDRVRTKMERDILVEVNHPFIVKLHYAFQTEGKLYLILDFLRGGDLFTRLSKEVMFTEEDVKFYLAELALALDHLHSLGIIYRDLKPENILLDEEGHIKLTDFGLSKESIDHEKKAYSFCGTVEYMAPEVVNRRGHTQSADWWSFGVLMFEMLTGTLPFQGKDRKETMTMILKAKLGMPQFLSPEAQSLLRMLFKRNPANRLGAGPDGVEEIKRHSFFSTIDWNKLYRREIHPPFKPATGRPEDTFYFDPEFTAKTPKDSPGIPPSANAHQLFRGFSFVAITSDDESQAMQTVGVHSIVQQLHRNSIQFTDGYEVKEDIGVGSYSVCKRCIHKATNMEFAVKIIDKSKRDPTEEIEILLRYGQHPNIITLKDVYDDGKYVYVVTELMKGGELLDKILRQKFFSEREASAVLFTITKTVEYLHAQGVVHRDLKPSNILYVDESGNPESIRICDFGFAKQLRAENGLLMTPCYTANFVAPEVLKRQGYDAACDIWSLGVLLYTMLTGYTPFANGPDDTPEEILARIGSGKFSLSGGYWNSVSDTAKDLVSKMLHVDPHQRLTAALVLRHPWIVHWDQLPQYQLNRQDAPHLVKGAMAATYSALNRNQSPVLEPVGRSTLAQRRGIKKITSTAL", "assay": "Inhibition of human Rsk2 (2 to end residues) using KKKNRTLSVA as substrate measured after 40 mins in presence of [gamma33P]ATP by scintillation counting method", "set-up": "scale not given: the % may be the effect or the level left"}, "[2]": {"target": "Serine/threonine-protein kinase D2 (Homo sapiens) (UniProt Q9BZL6)", "assay": "Inhibition of recombinant full-length human PKD2 assessed as residual activity at 10 uM using KKLNRTLSVA as substrate measured after 40 mins in presence of [gamma33P]ATP by scintillation counting method"}, "[3]": {"target": "Protein kinase C alpha type (Homo sapiens) (UniProt P17252)", "assay": "Inhibition of recombinant full-length human PKCalpha assessed as residual activity at 10 uM using histone H1 as substrate measured after 40 mins in presence of [gamma33P]ATP by scintillation counting method"}, "[4]": {"target": "Serine/threonine-protein kinase Nek11 (Homo sapiens) (UniProt Q8NG66)", "assay": "Inhibition of recombinant full-length human NEK11 assessed as residual activity at 10 uM using myelin basic protein as substrate measured after 40 mins in presence of [gamma33P]ATP by scintillation counting method"}, "[5]": {"system": "Hepatocyte growth factor receptor (Homo sapiens), P08581 [Y1230H]", "assay": "Inhibition of recombinant human MET A1209G/V1290L/Y1248H mutant (974 to end residues) assessed as residual activity at 10 uM using KKKGQEEEYVFIE as substrate measured after 40 mins in presence of [gamma33P]ATP by scintillation counting method"}, "Homo sapiens [6]": {"organism": "Homo sapiens", "assay": "Inhibition of recombinant human MAPKAPK2 A399G mutant (46 to end residues) assessed as residual activity at 10 uM using KKLNRTLSVA as substrate measured after 40 mins in presence of [gamma33P]ATP by scintillation counting method"}, "[7]": {"target": "Mitogen-activated protein kinase kinase kinase 5 (Homo sapiens) (UniProt Q99683)", "assay": "Inhibition of recombinant human ASK1 (649 to 946 residues) assessed as residual activity at 10 uM using myelin basic protein as substrate measured after 40 mins in presence of [gamma33P]ATP by scintillation counting method"}, "[8]": {"target": "Cytoplasmic tyrosine-protein kinase BMX (Homo sapiens) (UniProt P51813)", "sequence (P51813 whole entry)": "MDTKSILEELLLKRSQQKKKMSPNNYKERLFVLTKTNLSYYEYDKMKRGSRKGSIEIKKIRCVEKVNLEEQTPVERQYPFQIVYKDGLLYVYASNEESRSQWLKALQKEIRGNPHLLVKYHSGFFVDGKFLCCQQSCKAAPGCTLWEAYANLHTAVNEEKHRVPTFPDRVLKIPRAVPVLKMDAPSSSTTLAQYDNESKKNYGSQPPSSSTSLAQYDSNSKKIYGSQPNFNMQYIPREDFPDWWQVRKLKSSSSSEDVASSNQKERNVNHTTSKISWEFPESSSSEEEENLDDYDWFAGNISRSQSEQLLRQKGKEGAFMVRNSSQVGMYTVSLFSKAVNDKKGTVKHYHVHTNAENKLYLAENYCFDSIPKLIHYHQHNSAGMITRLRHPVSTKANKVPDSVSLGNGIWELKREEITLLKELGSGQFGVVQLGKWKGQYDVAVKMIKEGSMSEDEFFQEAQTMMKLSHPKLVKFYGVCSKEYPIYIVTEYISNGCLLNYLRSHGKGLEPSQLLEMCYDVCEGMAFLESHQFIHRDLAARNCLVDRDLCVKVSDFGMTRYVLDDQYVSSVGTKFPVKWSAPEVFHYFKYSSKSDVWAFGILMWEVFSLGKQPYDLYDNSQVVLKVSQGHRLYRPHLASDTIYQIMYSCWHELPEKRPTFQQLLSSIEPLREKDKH", "assay": "Inhibition of full-length recombinant human BMX assessed as residual activity at 10 uM using poly(Glu, Tyr) 4:1 as substrate measured after 40 mins in presence of [gamma33P]ATP by scintillation counting method"}, "[9]": {"target": "Receptor tyrosine-protein kinase erbB-4 (Homo sapiens) (UniProt Q15303)", "assay": "Inhibition of recombinant human ErbB4 (706 to 991 residues) assessed as residual activity at 10 uM using poly (Glu, Tyr) 4:1 as substrate measured after 40 mins in presence of [gamma33P]ATP by scintillation counting method"}, "[10]": {"target": "CDK4/Cyclin D3 (Homo sapiens) (UniProt P11802+P30281)", "assay": "Inhibition of recombinant full-length human CDK4/cyclinD3 assessed as residual activity at 10 uM using Rb fragment as substrate measured after 40 mins in presence of [gamma33P]ATP by scintillation counting method", "format": "protein-complex assay"}, "HCT-116 [11]": {"system": "HCT-116", "assay": "Antitumor activity against human HCT116 cells xenografted in nude BALB/c mouse assessed as tumor growth inhibition at 40 mg/kg, po administered once daily for 4 weeks measured post-last dose relative to control", "format": "functional", "settings": "HCT-116, po, 672 h, read-out: TGI"}, "Homo sapiens [12]": {"organism": "Homo sapiens", "assay": "Inhibition of recombinant human DDR1 V833L mutant (492 to end residues) assessed as residual activity at 10 uM using KKKSPGEYVNIEFG as substrate measured after 40 mins in presence of [gamma33P]ATP by scintillation counting method"}, "[13]": {"system": "Macrophage colony-stimulating factor 1 receptor (Homo sapiens), P07333 [Y969C]", "sequence (P07333 whole entry Y969C)": "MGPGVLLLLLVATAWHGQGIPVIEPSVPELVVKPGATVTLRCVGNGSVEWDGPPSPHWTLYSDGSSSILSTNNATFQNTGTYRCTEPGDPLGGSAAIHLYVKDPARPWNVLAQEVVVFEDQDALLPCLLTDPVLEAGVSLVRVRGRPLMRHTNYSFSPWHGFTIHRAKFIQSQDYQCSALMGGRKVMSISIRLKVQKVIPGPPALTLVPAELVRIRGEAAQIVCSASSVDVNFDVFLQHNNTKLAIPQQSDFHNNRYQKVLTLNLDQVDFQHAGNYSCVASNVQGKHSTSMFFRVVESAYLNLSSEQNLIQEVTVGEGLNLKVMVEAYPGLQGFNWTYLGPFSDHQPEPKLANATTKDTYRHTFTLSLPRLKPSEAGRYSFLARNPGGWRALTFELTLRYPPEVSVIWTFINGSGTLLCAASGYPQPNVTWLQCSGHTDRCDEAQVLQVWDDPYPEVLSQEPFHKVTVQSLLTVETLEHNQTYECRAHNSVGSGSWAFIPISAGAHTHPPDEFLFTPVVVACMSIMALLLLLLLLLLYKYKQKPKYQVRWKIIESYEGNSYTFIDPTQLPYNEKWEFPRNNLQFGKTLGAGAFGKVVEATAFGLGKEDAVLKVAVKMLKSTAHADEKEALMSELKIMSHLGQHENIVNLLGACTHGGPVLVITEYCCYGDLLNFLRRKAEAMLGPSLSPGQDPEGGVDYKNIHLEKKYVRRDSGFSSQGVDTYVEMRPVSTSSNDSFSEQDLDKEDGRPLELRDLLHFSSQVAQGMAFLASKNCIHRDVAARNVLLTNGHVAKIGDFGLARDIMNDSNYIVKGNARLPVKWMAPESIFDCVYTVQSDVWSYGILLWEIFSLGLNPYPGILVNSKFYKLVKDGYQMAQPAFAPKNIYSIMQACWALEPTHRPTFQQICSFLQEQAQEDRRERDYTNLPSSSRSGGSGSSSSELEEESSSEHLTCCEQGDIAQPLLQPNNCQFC", "assay": "Inhibition of recombinant human FMS Y969C mutant (538 to end residues) assessed as residual activity at 10 uM using EEEEYEEEEEEYYIIEEEEEEYEEEEEEYYEEEEEEKKKK as substrate measured after 40 mins in presence of [gamma33P]ATP by scintillation counting method"}, "[14]": {"target": "G protein-coupled receptor kinase 6 (Homo sapiens) (UniProt P43250)", "assay": "Inhibition of recombinant full-length human GRK6 assessed as residual activity at 10 uM using casein as substrate measured after 40 mins in presence of [gamma33P]ATP by scintillation counting method"}, "[15]": {"target": "Mitogen-activated protein kinase 8 (Homo sapiens) (UniProt P45983)", "sequence (P45983 whole entry)": "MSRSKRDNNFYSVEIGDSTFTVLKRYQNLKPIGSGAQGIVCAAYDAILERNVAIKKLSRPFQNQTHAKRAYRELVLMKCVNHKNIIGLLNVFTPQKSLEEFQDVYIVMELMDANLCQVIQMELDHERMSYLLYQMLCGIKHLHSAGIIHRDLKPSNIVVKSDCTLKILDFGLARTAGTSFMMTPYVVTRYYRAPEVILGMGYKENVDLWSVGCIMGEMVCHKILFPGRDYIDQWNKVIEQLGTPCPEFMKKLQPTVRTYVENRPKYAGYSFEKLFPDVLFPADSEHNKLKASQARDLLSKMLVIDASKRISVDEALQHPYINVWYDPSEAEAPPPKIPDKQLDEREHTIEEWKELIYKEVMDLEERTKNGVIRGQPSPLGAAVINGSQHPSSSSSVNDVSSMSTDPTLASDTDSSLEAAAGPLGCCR", "assay": "Inhibition of recombinant full-length human JNK1alpha1 assessed as residual activity at 10 uM using ATF2 as substrate measured after 40 mins in presence of [gamma33P]ATP by scintillation counting method"}, "[16]": {"target": "Serine/threonine-protein kinase MRCK alpha (Homo sapiens) (UniProt Q5VT25)", "assay": "Inhibition of recombinant human MRCKalpha (1 to 473 residues) assessed as residual activity at 10 uM using KKRNRTLTV as substrate measured after 40 mins in presence of [gamma33P]ATP by scintillation counting method"}, "[17]": {"target": "Serine/threonine-protein kinase PAK 5 (Homo sapiens) (UniProt Q9P286)", "sequence (Q9P286 whole entry, looked up)": "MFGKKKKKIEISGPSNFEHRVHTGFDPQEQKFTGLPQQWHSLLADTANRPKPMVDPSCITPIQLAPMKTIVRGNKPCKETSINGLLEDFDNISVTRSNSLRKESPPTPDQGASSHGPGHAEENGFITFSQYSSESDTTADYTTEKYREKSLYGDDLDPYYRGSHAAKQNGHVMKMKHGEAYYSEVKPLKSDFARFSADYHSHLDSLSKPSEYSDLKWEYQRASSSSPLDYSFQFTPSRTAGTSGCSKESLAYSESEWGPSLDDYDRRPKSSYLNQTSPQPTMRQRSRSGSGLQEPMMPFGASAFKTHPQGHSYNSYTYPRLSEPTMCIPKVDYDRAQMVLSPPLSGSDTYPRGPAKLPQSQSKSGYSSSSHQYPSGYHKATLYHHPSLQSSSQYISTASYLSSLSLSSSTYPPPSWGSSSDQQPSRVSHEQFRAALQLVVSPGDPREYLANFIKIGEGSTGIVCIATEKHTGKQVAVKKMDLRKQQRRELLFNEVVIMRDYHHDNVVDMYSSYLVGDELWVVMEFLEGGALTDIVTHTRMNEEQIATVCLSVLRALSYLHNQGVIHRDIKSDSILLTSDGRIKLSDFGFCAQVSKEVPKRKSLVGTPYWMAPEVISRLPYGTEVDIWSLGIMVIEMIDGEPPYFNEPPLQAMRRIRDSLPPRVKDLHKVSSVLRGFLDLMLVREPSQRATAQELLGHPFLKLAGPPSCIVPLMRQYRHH", "assay": "Inhibition of recombinant human PAK5 (425 to end residues) assessed as residual activity at 10 uM using RRRLSFAEPG as substrate measured after 40 mins in presence of [gamma33P]ATP by scintillation counting method"}, "[18]": {"target": "PAS domain-containing serine/threonine-protein kinase (Homo sapiens) (UniProt Q96RG2)", "assay": "Inhibition of recombinant human PASK (995 to end residues) assessed as residual activity at 10 uM using KKLNRTLSFAEPG as substrate measured after 40 mins in presence of [gamma33P]ATP by scintillation counting method"}, "[19]": {"target": "Serine/threonine-protein kinase N2 (Homo sapiens) (UniProt Q16513)", "sequence (Q16513 whole entry, looked up)": "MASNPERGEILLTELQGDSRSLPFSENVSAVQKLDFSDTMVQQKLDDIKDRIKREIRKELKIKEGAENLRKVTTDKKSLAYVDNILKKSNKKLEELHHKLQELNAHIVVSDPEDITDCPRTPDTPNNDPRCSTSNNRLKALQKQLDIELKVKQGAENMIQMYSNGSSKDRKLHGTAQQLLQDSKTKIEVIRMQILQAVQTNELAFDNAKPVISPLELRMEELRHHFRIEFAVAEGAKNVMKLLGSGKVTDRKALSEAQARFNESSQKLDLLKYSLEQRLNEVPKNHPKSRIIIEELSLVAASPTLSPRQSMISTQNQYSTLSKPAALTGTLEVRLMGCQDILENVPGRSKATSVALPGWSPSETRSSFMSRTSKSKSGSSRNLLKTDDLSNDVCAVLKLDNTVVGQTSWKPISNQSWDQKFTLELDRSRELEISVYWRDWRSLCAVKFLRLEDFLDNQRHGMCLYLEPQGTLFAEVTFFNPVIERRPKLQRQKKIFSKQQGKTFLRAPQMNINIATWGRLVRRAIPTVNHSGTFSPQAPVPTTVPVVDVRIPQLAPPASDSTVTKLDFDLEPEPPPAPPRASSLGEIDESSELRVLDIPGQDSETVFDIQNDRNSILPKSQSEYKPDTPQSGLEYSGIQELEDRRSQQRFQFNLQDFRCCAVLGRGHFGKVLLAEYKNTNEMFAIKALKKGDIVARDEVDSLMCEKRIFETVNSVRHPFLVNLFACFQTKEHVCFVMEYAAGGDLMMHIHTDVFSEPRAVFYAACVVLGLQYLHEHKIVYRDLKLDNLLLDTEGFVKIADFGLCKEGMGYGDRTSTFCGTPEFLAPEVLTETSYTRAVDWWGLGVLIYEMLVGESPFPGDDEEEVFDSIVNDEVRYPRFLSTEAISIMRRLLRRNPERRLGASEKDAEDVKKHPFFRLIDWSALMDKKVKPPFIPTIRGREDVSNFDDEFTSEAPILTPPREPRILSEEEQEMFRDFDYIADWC", "assay": "Inhibition of human PRK2 (501 to end residues) using AKRRRLSSLRA as substrate measured after 40 mins in presence of [gamma33P]ATP by scintillation counting method", "set-up": "scale not given: the % may be the effect or the level left"}, "[20]": {"target": "Serine/threonine-protein kinase TAO2 (Homo sapiens) (UniProt Q9UL54)", "assay": "Inhibition of human TAO2 (1 to 320 residues) using myelin basic protein as substrate measured after 40 mins in presence of [gamma33P]ATP by scintillation counting method", "set-up": "scale not given: the % may be the effect or the level left"}, "[21]": {"target": "Tyrosine-protein kinase Yes (Homo sapiens) (UniProt P07947)", "sequence (P07947 2-543 limits assumed)": "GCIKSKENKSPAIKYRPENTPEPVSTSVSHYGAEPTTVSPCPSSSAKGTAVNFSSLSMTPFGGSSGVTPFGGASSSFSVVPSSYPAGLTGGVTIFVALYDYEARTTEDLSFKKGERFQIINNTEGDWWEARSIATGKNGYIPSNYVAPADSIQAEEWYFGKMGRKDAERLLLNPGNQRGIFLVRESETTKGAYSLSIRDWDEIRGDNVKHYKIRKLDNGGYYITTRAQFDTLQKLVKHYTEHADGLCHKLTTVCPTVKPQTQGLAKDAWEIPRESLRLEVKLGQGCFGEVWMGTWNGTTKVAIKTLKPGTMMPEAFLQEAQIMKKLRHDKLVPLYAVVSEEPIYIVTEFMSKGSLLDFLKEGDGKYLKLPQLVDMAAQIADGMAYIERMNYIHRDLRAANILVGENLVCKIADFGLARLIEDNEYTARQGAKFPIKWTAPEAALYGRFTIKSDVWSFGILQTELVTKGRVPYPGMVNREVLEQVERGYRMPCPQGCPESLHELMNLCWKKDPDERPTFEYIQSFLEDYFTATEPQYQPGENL", "assay": "Inhibition of recombinant full-length human Yes assessed as residual activity at 10 uM using poly(Glu, Tyr) 4:1 as substrate measured after 40 mins in presence of [gamma33P]ATP by scintillation counting method"}, "[22]": {"target": "Serine-protein kinase ATM (Homo sapiens) (UniProt Q13315)", "assay": "Inhibition of recombinant full-length human ATM assessed as residual activity at 10 uM using GST-cMyc-p53 as substrate measured after 40 mins by ELISA"}, "HCT-116 [23]": {"system": "HCT-116", "assay": "Induction of apoptosis in human HCT116 cells assessed as necrotic cells at 100 nM measured after 48 hrs by Annexin V-FITC/propidium iodide staining-based flow cytometry (reference value: 1.16%)", "format": "functional"}}, "data": [{"smiles": "Cc1cc(C)c(CNc2nc(Cl)nc3c2ncn3C2CCCC2)c(=O)[nH]1", "values": [{"measurement": "IC50", "setting": "HT-29", "value": 71, "unit": "nM"}, {"measurement": "Activity", "setting": "[1]", "value": 100, "unit": "%"}, {"measurement": "Activity", "setting": "[2]", "value": 120, "unit": "%"}, {"measurement": "Activity", "setting": "[3]", "value": 88.5, "unit": "%"}, {"measurement": "Activity", "setting": "[4]", "value": 102, "unit": "%"}, {"measurement": "Activity", "setting": "[5]", "value": 99, "unit": "%"}, {"measurement": "Activity", "setting": "Homo sapiens [6]", "value": 124, "unit": "%"}, {"measurement": "Activity", "setting": "[7]", "value": 102, "unit": "%"}, {"measurement": "Activity", "setting": "[8]", "value": 132, "unit": "%"}, {"measurement": "Activity", "setting": "[9]", "value": 103, "unit": "%"}, {"measurement": "Activity", "setting": "[10]", "value": 91, "unit": "%"}, {"measurement": "inhibition in vivo at 40 mg/kg", "setting": "HCT-116 [11]", "value": 39.9, "unit": "%"}, {"measurement": "Activity", "setting": "Homo sapiens [12]", "value": 114, "unit": "%"}, {"measurement": "Activity", "setting": "[13]", "value": 94.5, "unit": "%"}, {"measurement": "Activity", "setting": "[14]", "value": 104, "unit": "%"}, {"measurement": "Activity", "setting": "[15]", "value": 96, "unit": "%"}, {"measurement": "Activity", "setting": "[16]", "value": 110, "unit": "%"}, {"measurement": "Activity", "setting": "[17]", "value": 110, "unit": "%"}, {"measurement": "Activity", "setting": "[18]", "value": 100, "unit": "%"}, {"measurement": "Activity", "setting": "[19]", "value": 116, "unit": "%"}, {"measurement": "Activity", "setting": "[20]", "value": 104, "unit": "%"}, {"measurement": "Activity", "setting": "[21]", "value": 79, "unit": "%"}, {"measurement": "Activity", "setting": "[22]", "value": 95.5, "unit": "%"}, {"measurement": "Activity", "setting": "HCT-116 [23]", "value": 5.57, "unit": "%"}]}]}
